Results reported in patent publication US20090047221A1 (NIPRI LIMITED, priority 2004, published 2009).

Legend:
Format in all cases: cell-based
H23 = experiment: MTT assay (anti-proliferative activity)
Description: (§1) The MTT assay was used initially to determine the anti-proliferative activity of the test compounds. In the MTT assay a yellow thiazolyl blue tetrazolium bromide salt (MTT) is reduced, in metabolically active cells, to form insoluble purple formazan crystals which are solubilised by the addition of dimethyl sulphoxide (DMSO). Absorbance readings can then be determined spectrophotometrically and a relationship established between control untreated cells and drug treated cells enabling the quantification of anti-proliferative changes as a result of drug treatment (Mosmann, 1983).
(§2) Wells containing medium only were used as blanks. Following the attachment period, cells were treated with appropriate drug concentrations (20 μl added per well). 40 mg/ml stock drug solutions, in DMSO, were stored at −20° C. and on the day of drug treatment working solutions of 4 mg/ml were prepared in medium which was further diluted to achieve final drug dilution volumes of 20 μl. Initial screening was determined over a concentration range of 1-200 μg/ml. For potent compounds the assay was repeated over a narrower concentration range to determine accurate IC50 values. Cells were exposed to drug for 96 h continual exposure (37° C., 5% CO2). Following the 96 h incubation, 50 μl MTT solution (1 g MTT/500 ml PBS) was added per well and the plates were further incubated for 4 h (37° C., 5% CO2). After incubation the MTT and medium was removed from the wells and 100 μl DMSO added per well. Plates were agitated on an orbital mixer platform (Stuart Scientific) for 10 minutes. Absorbance was measured at 570 nm on a Biotrak II (Amersham Bioscience) plate reader. IC50 values were calculated comparing control and drug treated cells.

HCT+/+ = experiment: MTT assay (anti-proliferative activity)
Description: as §1, §2

HCT−/− = experiment: MTT assay (anti-proliferative activity)
Description: as §1, §2

HT29 = experiment: MTT assay (anti-proliferative activity)
Description: as §1, §2

LNCAP = experiment: MTT assay (anti-proliferative activity)
Description: as §1, §2

PC3 = experiment: MTT assay (anti-proliferative activity)
Description: as §1, §2

PNT2 = experiment: MTT assay (anti-proliferative activity)
Description: as §1, §2

RKO = experiment: MTT assay (anti-proliferative activity)
Description: as §1, §2

ZR-75-1 = experiment: MTT assay (anti-proliferative activity)
Description: as §1, §2

[1] = test system: cancer cell line MDA-MB-468; experiment: Combination index with known cancer drugs against proliferation (Calcusyn software)
Method in brief: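 MTT proliferation assay: cells exposed continuously to drug for 96 h at 37° C, 5% CO2, screening range 1-200 μg/ml, then MTT 4 h, DMSO solubilisation, absorbance 570 nm. Synergy with known drugs given as combination index (Calcusyn).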

## CCCCC/C=C\C/C=C\C/C=C\CCCCCOC(=O)c1ccc2c(c1O)C(=O)OC(C)C2 (racemic) [ALM-43, γ-Linolenyl Ester]
H23
  IC50: 2.1 µM
HCT+/+
  IC50: 21.3 µM
HCT−/−
  IC50: 42.7 µM
HT29
  IC50: 18.7 µM
LNCAP
  IC50: 10.7 µM
PC3
  IC50: 9.6 µM
PNT2
  IC50: 5.3 µM
RKO
  IC50: 10.7 µM
ZR-75-1
  IC50: 6.4 µM
[1]; Cisplatin 1 × 10^−2 mol/L, ALM compound 0.1 μg/ml
  Combination Index: 0.063
[1]; Cisplatin 1 × 10^−2 mol/L, ALM compound 0.5 μg/ml
  Combination Index: 0.003
[1]; Cisplatin 1 × 10^−2 mol/L, ALM compound 1.0 μg/ml
  Combination Index: 0.007
[1]; Cisplatin 1 × 10^−2 mol/L, ALM compound 5.0 μg/ml
  Combination Index: 0.038
[1]; Cisplatin 1 × 10^−3 mol/L, ALM compound 0.1 μg/ml
  Combination Index: No
[1]; Cisplatin 1 × 10^−3 mol/L, ALM compound 0.5 μg/ml
  Combination Index: No
[1]; Cisplatin 1 × 10^−3 mol/L, ALM compound 1.0 μg/ml
  Combination Index: No
[1]; Cisplatin 1 × 10^−3 mol/L, ALM compound 5.0 μg/ml
  Combination Index: No
[1]; Cisplatin 1 × 10^−4 mol/L, ALM compound 0.1 μg/ml
  Combination Index: No
[1]; Cisplatin 1 × 10^−4 mol/L, ALM compound 0.5 μg/ml
  Combination Index: No
[1]; Cisplatin 1 × 10^−4 mol/L, ALM compound 1.0 μg/ml
  Combination Index: No
[1]; Cisplatin 1 × 10^−4 mol/L, ALM compound 5.0 μg/ml
  Combination Index: No
[1]; Cisplatin 1 × 10^−5 mol/L, ALM compound 0.1 μg/ml
  Combination Index: No
[1]; Cisplatin 1 × 10^−5 mol/L, ALM compound 0.5 μg/ml
  Combination Index: No
[1]; Cisplatin 1 × 10^−5 mol/L, ALM compound 1.0 μg/ml
  Combination Index: No
[1]; Cisplatin 1 × 10^−5 mol/L, ALM compound 5.0 μg/ml
  Combination Index: No
[1]; Cisplatin 1 × 10^−6 mol/L, ALM compound 0.1 μg/ml
  Combination Index: No
[1]; Cisplatin 1 × 10^−6 mol/L, ALM compound 0.5 μg/ml
  Combination Index: No
[1]; Cisplatin 1 × 10^−6 mol/L, ALM compound 1.0 μg/ml
  Combination Index: No
[1]; Cisplatin 1 × 10^−6 mol/L, ALM compound 5.0 μg/ml
  Combination Index: No
[1]; Cisplatin 1 × 10^−7 mol/L, ALM compound 0.1 μg/ml
  Combination Index: 0.636
[1]; Cisplatin 1 × 10^−7 mol/L, ALM compound 0.5 μg/ml
  Combination Index: 0.612
[1]; Cisplatin 1 × 10^−7 mol/L, ALM compound 1.0 μg/ml
  Combination Index: No
[1]; Cisplatin 1 × 10^−7 mol/L, ALM compound 5.0 μg/ml
  Combination Index: No
[1]; Cisplatin 1 × 10^−8 mol/L, ALM compound 0.1 μg/ml
  Combination Index: 0.199
[1]; Cisplatin 1 × 10^−8 mol/L, ALM compound 0.5 μg/ml
  Combination Index: No
[1]; Cisplatin 1 × 10^−8 mol/L, ALM compound 1.0 μg/ml
  Combination Index: No
[1]; Cisplatin 1 × 10^−8 mol/L, ALM compound 5.0 μg/ml
  Combination Index: No
[1]; Cisplatin 1 × 10^−9 mol/L, ALM compound 0.1 μg/ml
  Combination Index: 0.054
[1]; Cisplatin 1 × 10^−9 mol/L, ALM compound 0.5 μg/ml
  Combination Index: 0.536
[1]; Cisplatin 1 × 10^−9 mol/L, ALM compound 1.0 μg/ml
  Combination Index: No
[1]; Cisplatin 1 × 10^−9 mol/L, ALM compound 5.0 μg/ml
  Combination Index: No
[1]; Doxorubicin 1 × 10^−4 mol/L, ALM compound 0.1 μg/ml
  Combination Index: No
[1]; Doxorubicin 1 × 10^−4 mol/L, ALM compound 0.5 μg/ml
  Combination Index: No
[1]; Doxorubicin 1 × 10^−4 mol/L, ALM compound 1.0 μg/ml
  Combination Index: No
[1]; Doxorubicin 1 × 10^−4 mol/L, ALM compound 5.0 μg/ml
  Combination Index: No
[1]; Doxorubicin 1 × 10^−5 mol/L, ALM compound 0.1 μg/ml
  Combination Index: 0.385
[1]; Doxorubicin 1 × 10^−5 mol/L, ALM compound 0.5 μg/ml
  Combination Index: 0.700
[1]; Doxorubicin 1 × 10^−5 mol/L, ALM compound 1.0 μg/ml
  Combination Index: 0.278
[1]; Doxorubicin 1 × 10^−5 mol/L, ALM compound 5.0 μg/ml
  Combination Index: 0.457
[1]; Etoposide 1 × 10^−4 mol/L, ALM compound 0.1 μg/ml
  Combination Index: 0.399
[1]; Etoposide 1 × 10^−4 mol/L, ALM compound 0.5 μg/ml
  Combination Index: 0.289
[1]; Etoposide 1 × 10^−4 mol/L, ALM compound 1.0 μg/ml
  Combination Index: 0.418
[1]; Etoposide 1 × 10^−4 mol/L, ALM compound 5.0 μg/ml
  Combination Index: 0.474
[1]; Etoposide 1 × 10^−5 mol/L, ALM compound 0.1 μg/ml
  Combination Index: No
[1]; Etoposide 1 × 10^−5 mol/L, ALM compound 0.5 μg/ml
  Combination Index: No
[1]; Etoposide 1 × 10^−5 mol/L, ALM compound 1.0 μg/ml
  Combination Index: No
[1]; Etoposide 1 × 10^−5 mol/L, ALM compound 5.0 μg/ml
  Combination Index: No
[1]; Etoposide 1 × 10^−6 mol/L, ALM compound 0.1 μg/ml
  Combination Index: No
[1]; Etoposide 1 × 10^−6 mol/L, ALM compound 0.5 μg/ml
  Combination Index: 0.865
[1]; Etoposide 1 × 10^−6 mol/L, ALM compound 1.0 μg/ml
  Combination Index: No
[1]; Etoposide 1 × 10^−6 mol/L, ALM compound 5.0 μg/ml
  Combination Index: No
[1]; Etoposide 1 × 10^−7 mol/L, ALM compound 0.1 μg/ml
  Combination Index: 0.473
[1]; Etoposide 1 × 10^−7 mol/L, ALM compound 0.5 μg/ml
  Combination Index: 0.305
[1]; Etoposide 1 × 10^−7 mol/L, ALM compound 1.0 μg/ml
  Combination Index: No
[1]; Etoposide 1 × 10^−7 mol/L, ALM compound 5.0 μg/ml
  Combination Index: No
[1]; Etoposide 1 × 10^−8 mol/L, ALM compound 0.1 μg/ml
  Combination Index: 0.181
[1]; Etoposide 1 × 10^−8 mol/L, ALM compound 0.5 μg/ml
  Combination Index: 0.137
[1]; Etoposide 1 × 10^−8 mol/L, ALM compound 1.0 μg/ml
  Combination Index: No
[1]; Etoposide 1 × 10^−8 mol/L, ALM compound 5.0 μg/ml
  Combination Index: No
[1]; Etoposide 1 × 10^−9 mol/L, ALM compound 0.1 μg/ml
  Combination Index: 0.090
[1]; Etoposide 1 × 10^−9 mol/L, ALM compound 0.5 μg/ml
  Combination Index: 0.319
[1]; Etoposide 1 × 10^−9 mol/L, ALM compound 1.0 μg/ml
  Combination Index: No
[1]; Etoposide 1 × 10^−9 mol/L, ALM compound 5.0 μg/ml
  Combination Index: No
[1]; Etoposide 1 × 10^−10 mol/L, ALM compound 0.1 μg/ml
  Combination Index: 0.083
[1]; Etoposide 1 × 10^−10 mol/L, ALM compound 0.5 μg/ml
  Combination Index: 0.515
[1]; Etoposide 1 × 10^−10 mol/L, ALM compound 1.0 μg/ml
  Combination Index: No
[1]; Etoposide 1 × 10^−10 mol/L, ALM compound 5.0 μg/ml
  Combination Index: No
[1]; Irinotecan 1 × 10^−3 mol/L, ALM compound 0.1 μg/ml
  Combination Index: 0.088
[1]; Irinotecan 1 × 10^−3 mol/L, ALM compound 0.5 μg/ml
  Combination Index: 0.230
[1]; Irinotecan 1 × 10^−3 mol/L, ALM compound 1.0 μg/ml
  Combination Index: 0.438
[1]; Irinotecan 1 × 10^−3 mol/L, ALM compound 5.0 μg/ml
  Combination Index: 0.307
[1]; Irinotecan 1 × 10^−4 mol/L, ALM compound 0.1 μg/ml
  Combination Index: 0.019
[1]; Irinotecan 1 × 10^−4 mol/L, ALM compound 0.5 μg/ml
  Combination Index: 0.005
[1]; Irinotecan 1 × 10^−4 mol/L, ALM compound 1.0 μg/ml
  Combination Index: 0.040
[1]; Irinotecan 1 × 10^−4 mol/L, ALM compound 5.0 μg/ml
  Combination Index: 0.113
[1]; Irinotecan 1 × 10^−5 mol/L, ALM compound 0.1 μg/ml
  Combination Index: No
[1]; Irinotecan 1 × 10^−5 mol/L, ALM compound 0.5 μg/ml
  Combination Index: No
[1]; Irinotecan 1 × 10^−5 mol/L, ALM compound 1.0 μg/ml
  Combination Index: No
[1]; Irinotecan 1 × 10^−5 mol/L, ALM compound 5.0 μg/ml
  Combination Index: No
[1]; Irinotecan 1 × 10^−6 mol/L, ALM compound 0.1 μg/ml
  Combination Index: No
[1]; Irinotecan 1 × 10^−6 mol/L, ALM compound 0.5 μg/ml
  Combination Index: No
[1]; Irinotecan 1 × 10^−6 mol/L, ALM compound 1.0 μg/ml
  Combination Index: No
[1]; Irinotecan 1 × 10^−6 mol/L, ALM compound 5.0 μg/ml
  Combination Index: No
[1]; Irinotecan 1 × 10^−7 mol/L, ALM compound 0.1 μg/ml
  Combination Index: No
[1]; Irinotecan 1 × 10^−7 mol/L, ALM compound 0.5 μg/ml
  Combination Index: No
[1]; Irinotecan 1 × 10^−7 mol/L, ALM compound 1.0 μg/ml
  Combination Index: No
[1]; Irinotecan 1 × 10^−7 mol/L, ALM compound 5.0 μg/ml
  Combination Index: No
[1]; Irinotecan 1 × 10^−8 mol/L, ALM compound 0.1 μg/ml
  Combination Index: 0.514
[1]; Irinotecan 1 × 10^−8 mol/L, ALM compound 0.5 μg/ml
  Combination Index: 0.233
[1]; Irinotecan 1 × 10^−8 mol/L, ALM compound 1.0 μg/ml
  Combination Index: No
[1]; Irinotecan 1 × 10^−8 mol/L, ALM compound 5.0 μg/ml
  Combination Index: No
[1]; Irinotecan 1 × 10^−9 mol/L, ALM compound 0.1 μg/ml
  Combination Index: 0.701
[1]; Irinotecan 1 × 10^−9 mol/L, ALM compound 0.5 μg/ml
  Combination Index: 0.628
[1]; Irinotecan 1 × 10^−9 mol/L, ALM compound 1.0 μg/ml
  Combination Index: No
[1]; Irinotecan 1 × 10^−9 mol/L, ALM compound 5.0 μg/ml
  Combination Index: No
[1]; Irinotecan 1 × 10^−11 mol/L, ALM compound 0.1 μg/ml
  Combination Index: 0.172
[1]; Irinotecan 1 × 10^−11 mol/L, ALM compound 0.5 μg/ml
  Combination Index: 0.484
[1]; Irinotecan 1 × 10^−11 mol/L, ALM compound 1.0 μg/ml
  Combination Index: No
[1]; Irinotecan 1 × 10^−11 mol/L, ALM compound 5.0 μg/ml
  Combination Index: No
